Laboratory results as given in patent US20220087996A1, “Histone acetylase p300 inhibitor and use thereof” (HINOVA PHARMACEUTICALS INC., priority 2018, published 2022).
Like-named read-outs stand apart in the source and are kept apart here.

Experiments:
KMS-20 = assay: Inhibition of proliferation of KMS-20 cells; format: cell-based; details: Multiple myeloma cell line KMS-20; read-out: IC50 against KMS-20
Method: (§1) 1) CWR22RV1 cells were subcultured in cell culture medium, and the cells in good growth condition were seeded in a 96-well plate, 80 μL for each well, and the cell number in each well was 1500. The plate was incubated overnight in a 37° C., 5% CO2 cell incubator. 2) The drug was prepared as 30 mM stock solution with dimethyl sulfoxide (DMSO). Prior to use, the stock solution was diluted 3 times with DMSO, and then further diluted as 3-fold gradient to obtain 9 concentration gradients. Then, each concentration of compound was diluted 200 times with the culture solution (ensuring that the DMSO concentration in the culture system was 0.1%), and two replicate wells were set for each concentration. 20 μL of diluted compound solution was added to the cell culture well (with final concentrations of 10 μM, 3.3 μM. 1.1 μM . . . ), and the plate was gently shaken to mix. In addition, 3 negative control wells containing only cells and 3 blank control wells containing only culture medium were included (6 wells were each added 20 μL DMSO diluted 200 times with culture medium). 2. Result detection: (1) After culturing for 6 days, 10 μL CCK-8 was added to each well, and the plate was continually cultured in a 37° C., 5% CO2 cell incubator for 2.5 h. (2) The absorbance (OD value) was detected at 450 nm using a multifunctional microplate reader. (3) The data were analyzed by Dose-response-inhibition equation in the software GraphPad Prism6, and the IC50 value was obtained.
(§2) Using the same method as Experimental example 2, CWR22RV1 cells were replaced with tumor cells in Table 3, and the IC50 (nM) of the compound according to the present invention against the activity of these tumor cells was tested and calculated.

Pfeiffer = assay: Inhibition of proliferation of Pfeiffer cells; format: cell-based; details: Homo sapiens; Lymphoma cell line Pfeiffer; read-out: IC50 against Pfeiffer
Method: as §1, §2

RL = assay: Inhibition of proliferation of RL cells; format: cell-based; details: Homo sapiens; Lymphoma cell line RL; read-out: IC50 against RL
Method: as §1, §2

BT-474 = assay: Inhibition of proliferation of BT-474 cells; format: cell-based; details: Homo sapiens; Breast cancer cell line BT-474; read-out: IC50 against BT-474
Method: as §1, §2

Z-138 = assay: Inhibition of proliferation of Z-138 cells; format: cell-based; details: Homo sapiens; Lymphoma cell line Z-138; read-out: IC50 against Z-138
Method: as §1, §2

VCAP = assay: Inhibition of proliferation of VCAP cells; format: cell-based; details: Homo sapiens; Prostate cancer cell line VCAP; read-out: IC50 against VCAP
Method: as §1, §2

MCF-7 = assay: Inhibition of proliferation of MCF-7 cells; format: cell-based; details: Homo sapiens, MCF7; Breast cancer cell line MCF-7; read-out: IC50 against MCF-7
Method: as §1, §2

ATN-1 = assay: Inhibition of proliferation of ATN-1 cells; format: cell-based; details: Homo sapiens; Leukemia cell line ATN-1; read-out: IC50 against ATN-1
Method: as §1, §2

NCI-H929 = assay: Inhibition of proliferation of NCI-H929 cells; format: cell-based; details: Homo sapiens; Multiple myeloma cell line NCI-H929; read-out: IC50 against NCI-H929
Method: as §1, §2

CWR22RV1 cells = assay: Inhibition of proliferation of CWR22RV1 cells (CCK-8); format: cell-based, human; details: Homo sapiens, CWR22Rv1, 144 h, 6 days culture
In short: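 Proliferation read-out was CCK-8 absorbance at 450 nm after 2.5 h, following 6-day culture with compound. Each well held 1500 CWR22RV1 cells; the 3-fold, 9-point series started at a final 10 μM in 0.1% DMSO. Dose-response-inhibition fit gave the IC50.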

KMS-12-PE = assay: Inhibition of proliferation of KMS-12-PE cells; format: cell-based; details: Homo sapiens; Lymphoma cell line KMS-12-PE; read-out: IC50 against KMS-12-PE
Method: as §1, §2

MLMA = assay: Inhibition of proliferation of MLMA cells; format: cell-based; details: Lymphoma cell line MLMA; read-out: IC50 against MLMA
Method: as §1, §2

HEL = assay: Inhibition of proliferation of HEL cells; format: cell-based; details: Homo sapiens; Leukemia cell line HEL; read-out: IC50 against HEL
Method: as §1, §2

EVSA-T = assay: Inhibition of proliferation of EVSA-T cells; format: cell-based; details: Homo sapiens; Breast cancer cell line EVSA-T; read-out: IC50 against EVSA-T
Method: as §1, §2

DU4475 = assay: Inhibition of proliferation of DU4475 cells; format: cell-based; details: Homo sapiens, DU-4475; Breast cancer cell line DU4475; read-out: IC50 against DU4475
Method: as §1, §2

MOLM-16 = assay: Inhibition of proliferation of MOLM-16 cells; format: cell-based; details: MOLM16; Leukemia cell line MOLM-16; read-out: IC50 against MOLM-16
Method: as §1, §2

HCC1428 = assay: Inhibition of proliferation of HCC1428 cells; format: cell-based; details: Homo sapiens; Breast cancer cell line HCC1428; read-out: IC50 against HCC1428
Method: as §1, §2

MDA-MB-453 = assay: Inhibition of proliferation of MDA-MB-453 cells; format: cell-based; details: Homo sapiens; Breast cancer cell line MDA-MB-453; read-out: IC50 against MDA-MB-453
Method: as §1, §2

MT-2 = assay: Inhibition of proliferation of MT-2 cells; format: cell-based; details: Homo sapiens, MT2; Leukemia cell line MT-2; read-out: IC50 against MT-2
Method: as §1, §2

MOLT-4 = assay: Inhibition of proliferation of MOLT-4 cells; format: cell-based; details: Homo sapiens; Leukemia cell line MOLT-4; read-out: IC50 against MOLT-4
Method: as §1, §2

LNCAP-AR = assay: Inhibition of proliferation of LNCAP-AR cells; format: cell-based; details: Prostate cancer cell line LNCAP-AR; read-out: IC50 against LNCAP-AR
Method: as §1, §2

LNCAP = assay: Inhibition of proliferation of LNCAP cells; format: cell-based; details: Homo sapiens; Prostate cancer cell line LNCAP; read-out: IC50 against LNCAP
Method: as §1, §2

TALL-1 = assay: Inhibition of proliferation of TALL-1 cells; format: cell-based; details: Homo sapiens; Leukemia cell line TALL-1; read-out: IC50 against TALL-1
Method: as §1, §2

OPM-2 = assay: Inhibition of proliferation of OPM-2 cells; format: cell-based; details: Homo sapiens; Multiple myeloma cell line OPM-2; read-out: IC50 against OPM-2
Method: as §1, §2

MM.1S = assay: Inhibition of proliferation of MM.1S cells; format: cell-based; details: Homo sapiens, MM1.S; Multiple myeloma cell line MM.1S; read-out: IC50 against MM.1S
Method: as §1, §2

KMS-11 = assay: Inhibition of proliferation of KMS-11 cells; format: cell-based; details: Homo sapiens; Multiple myeloma cell line KMS-11; read-out: IC50 against KMS-11
Method: as §1, §2

MM.1R = assay: Inhibition of proliferation of MM.1R cells; format: cell-based; details: Lymphoma cell line MM.1R; read-out: IC50 against MM.1R
Method: as §1, §2

MAVER-1 = assay: Inhibition of proliferation of MAVER-1 cells; format: cell-based; details: Homo sapiens, Maver1; Lymphoma cell line MAVER-1; read-out: IC50 against MAVER-1
Method: as §1, §2

KARPAS-422 = assay: Inhibition of proliferation of KARPAS-422 cells; format: cell-based; details: Homo sapiens; Lymphoma cell line KARPAS-422; read-out: IC50 against KARPAS-422
Method: as §1, §2

OCI-AML3 = assay: Inhibition of proliferation of OCI-AML3 cells; format: cell-based; details: Homo sapiens, OCI-AML-3; Leukemia cell line OCI-AML3; read-out: IC50 against OCI-AML3
Method: as §1, §2

CNC(=O)Nc1cc2c(cc1F)[C@@]1(CC2)OC(=O)N(CC(=O)N2[C@@H](C)CC[C@H]2c2cc(F)c(F)c(F)c2)C1=O [Example 390, 1-((R)-6-fluoro-3′-(2-((2S,5S)-2-methyl-5-(3,4,5-trifluorophenyl)pyrrolidin-1-yl)-2-oxoethyl)-2′,4′-dioxo-2,3-dihydrospiro[indene-1,5′-oxazolidine]-5-yl)-3-methylurea]
IC50 (KMS-20): ≤ 500 nM
IC50 (Pfeiffer): ≤ 500 nM
IC50 (RL): ≤ 500 nM
IC50 (BT-474): ≤ 500 nM
IC50 (Z-138): ≤ 500 nM
IC50 (VCAP): ≤ 500 nM
IC50 (MCF-7): ≤ 500 nM
IC50 (ATN-1): ≤ 500 nM
IC50 (NCI-H929): ≤ 500 nM
IC50 (CWR22RV1 cells; read-out: IC50 against CWR22RV1 cells): ≤ 500 nM
IC50 (CWR22RV1 cells; read-out: IC50 against CWR22RV1 cells (text)): ≤ 500 nM
IC50 (KMS-12-PE): 500 to 2000 nM
IC50 (MLMA): ≤ 500 nM
IC50 (HEL): ≤ 500 nM
IC50 (EVSA-T): 500 to 2000 nM
IC50 (DU4475): 500 to 2000 nM
IC50 (MOLM-16): ≤ 500 nM
IC50 (HCC1428): ≤ 500 nM
IC50 (MDA-MB-453): ≤ 500 nM
IC50 (MT-2): 500 to 2000 nM
IC50 (MOLT-4): ≤ 500 nM
IC50 (LNCAP-AR): ≤ 500 nM
IC50 (LNCAP): ≤ 500 nM
IC50 (TALL-1): ≤ 500 nM
IC50 (OPM-2): ≤ 500 nM
IC50 (MM.1S): 500 to 2000 nM
IC50 (KMS-11): ≤ 500 nM
IC50 (MM.1R): 500 to 2000 nM
IC50 (MAVER-1): ≤ 500 nM
IC50 (KARPAS-422): ≤ 500 nM
IC50 (OCI-AML3): ≤ 500 nM
